Values of other authors in patent US8124611B2, “Inhibitors of the mutant form of kit” (Novartis AG, priority 2003, dated 2012).

Target: KIT D816V mutation (Homo sapiens, UniProt P10721, D816V)
Conditions: D816V mutation commonly found in systemic mastocytosis

Chain of KIT D816V mutation (P10721 26-976 D816V): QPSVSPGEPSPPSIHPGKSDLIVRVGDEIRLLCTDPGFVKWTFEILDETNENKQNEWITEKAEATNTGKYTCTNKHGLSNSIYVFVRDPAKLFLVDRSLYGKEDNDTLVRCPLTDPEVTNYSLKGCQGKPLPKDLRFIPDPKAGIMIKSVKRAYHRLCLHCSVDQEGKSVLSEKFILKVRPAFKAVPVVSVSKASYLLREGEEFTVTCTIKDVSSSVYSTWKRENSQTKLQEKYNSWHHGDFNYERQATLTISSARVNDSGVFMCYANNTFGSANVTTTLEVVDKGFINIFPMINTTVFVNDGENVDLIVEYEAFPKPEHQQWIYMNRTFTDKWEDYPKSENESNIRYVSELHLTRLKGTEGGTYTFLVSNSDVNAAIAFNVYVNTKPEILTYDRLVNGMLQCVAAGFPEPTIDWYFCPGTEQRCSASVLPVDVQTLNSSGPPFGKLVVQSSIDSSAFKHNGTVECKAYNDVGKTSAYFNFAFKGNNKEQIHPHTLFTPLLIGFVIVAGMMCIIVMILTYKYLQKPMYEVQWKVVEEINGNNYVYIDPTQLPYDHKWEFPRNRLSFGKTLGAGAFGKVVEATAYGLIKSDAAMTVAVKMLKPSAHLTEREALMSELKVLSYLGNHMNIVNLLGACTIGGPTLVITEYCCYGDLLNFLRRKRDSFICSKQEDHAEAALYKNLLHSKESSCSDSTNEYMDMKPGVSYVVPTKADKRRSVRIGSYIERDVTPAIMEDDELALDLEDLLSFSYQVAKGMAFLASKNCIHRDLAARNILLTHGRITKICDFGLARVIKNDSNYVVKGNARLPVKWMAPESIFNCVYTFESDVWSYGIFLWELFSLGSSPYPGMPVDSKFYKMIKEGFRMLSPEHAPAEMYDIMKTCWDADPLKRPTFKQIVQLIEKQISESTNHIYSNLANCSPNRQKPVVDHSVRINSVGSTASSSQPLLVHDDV

In the case of Cc1ccc(NC(=O)c2ccc(CN3CCN(C)CC3)cc2)cc1Nc1nccc(-c2cccnc2)n1 [Imatinib], the “activity against mutant forms of KIT” value is listed as “inactive or significantly less active”.
